Experimental data published in patent US9676829B2, “Antibacterial polypeptides and use thereof” (Oslo Universitetssykehus HF, priority 2009, dated 2017).

Columns and labels:
Assay type in all cases: cell-based, Escherichia coli
[1] = system: E. coli cells; assay: Membrane depolarization, DiBAC4(3) uptake by flow cytometry after IPTG induction; conditions: 5 and 20 minutes after 1 mM IPTG
Protocol: Cells were grown to OD600≅0.4 in LB and then induced with IPTG to a final concentration of 1 mM. At 0, 5 and 20 minutes culture samples were diluted 1:10 in filtered AB minimal medium (Clark and MaalØe, 1967) +10 μg ml-1 DiBAC4(3) (Sigma-Aldrich). After 20 minutes incubation in the dark at room temperature, cells were analysed in a Flowcytometry LSRII (Becton Dickinson) equipped with an argon ion laser and a krypton laser (both Spectra Physics). DiBAC4(3) was detected in channel 580 using 488 nm laser. Parameters were collected as logarithmic signals. The two populations were easily separated in each staining experiment. The data obtained was analyzed by winMDI software.
To examine whether DinQ affects membrane polarization, the inventors tested the ability of E. coli cells with dinQ containing plasmids to take up the dye DiBAC4(3) [bis-(1,3-dibarbituric acid)-trimethine oxanol]. The dye enters cells upon membrane depolarization leading to increased fluorescence. Cells were taken 5 and 20 minutes after induction of DinQ expression with IPTG, incubated with DiBAC4(3) for 20 min and analyzed by flow cytometry (FIG. 9).

[2] = system: E. coli ER2566; assay: UV radiation survival spot assay of dinQ variants; conditions: UV irradiation of 24 J/m2, compared with intact dinQ (pBK444)
Excerpt: (§1) The spots in FIG. 22 represent E. coli ER2566 dilutions in the range of 100-10-5 (left to right). UV irradiation of 24 J/m2 was used to induce dinQ toxicity (right picture), and was compared to the unirradiated control assay (left picture). Control cells carry the vector plasmid (pKK232-8), and cells carrying the plasmid encoding intact dinQ (pBK444), were used as reference.
as §1, with “spots” for “spots in”, “23” for “22”, “10^0-10^−5” for “100-10-5”, “reference (see FIG. 23).” for “reference.”

[3] = system: E. coli; assay: Small colony variant count after IPTG induction of dinQ ORF5; conditions: IPTG 1 mM
Protocol: E. coli capable of overexpressing dinQ ORFS were incubated (O/N, 37° C., 200 rpm) before subculturing to OD600=0.01 (LB, kan, tet, amp). After incubation (37° C., 200 rpm) to OD600=0.5 expression of the toxin was either induced with IPTG (1 mM) or not. At time points after the addition the bacteria were serially diluted (×10) and plated (LB, 2% agar). After incubation (16 h, 37° C.) the plates were counted. Colony size was estimated and those 10× smaller than a typical colony were counted as a small colony variant SCV (see FIG. 21).

[4] = system: wild type E. coli; assay: IPTG sensitivity spot assay, DinQ ORFs over-expressed from pET28b(+)
Protocol: A. IPTG sensitivity in strains plated on IPTG. An aliquot or serially diluted (10-1-10-5 cells ml-1) log-phase cultures of wild type E. coli with empty expression vector pET28b(+) or vector constructs with alternative DinQ ORFs were spotted onto LB plates containing no IPTG (left panel) or 0.6 mM IPTG (right panel). The […] indicates a toxic effect with DinQ ORF 2-5 when the translation is forced by IPTG induction.
Expression plasmids pET28b-ORF1, pET28b-ORF2, pET28b-ORF3, pET28b-ORF4 and pET28b-ORF5 contains the DinQ ORF1, ORF2, ORF3, ORF4 and ORFS open reading frames inserted in the NcoI-BamHI restriction sites of the pET28b(+) vector (Novagen).
The mechanism underlying the UV sensitive phenotype of DinQ in a multicopy situation or under upregulation in an agrB mutant is unknown. The dinQ gene contain two putative open reading frames in which one of the reading frames encode three putative start codons (ii-iv, see FIG. 1C). […] To examine if any of the open reading frames mediate the UV sensitivity each reading frame were cloned into the expression vector pET28b(+) and expressed under control of IPTG (FIG. 4A). […] Next, DinQ ORF […] expression was titrated with increasing concentrations of IPTG (FIG. 4C) showing that ORF IV is highly toxic to the cells at very low doses of IPTG induction. […]

[5] = system: E. coli; assay: Microscopy of E. coli overexpressing dinQ ORF5 upon IPTG induction; conditions: 4 h after IPTG 1 mM
Protocol: E. coli capable of overexpressing dinQ ORF5 were plated (LB agar 2%, kan, tet, amp) and incubated (O/N, 37° C.). A single colony was picked and grown (37° C., 16 h, 200 rpm) in liquid media (LB, kan, tet, amp). The culture was then adjusted to OD600=0.03 in fresh media (LB, kan, tet, amp) and allowed to grow (37° C., 16 h, 200 rpm) back to OD600=0.5 before induction with IPTG (1 mM). After incubation (4 h, 37° C., 200 rpm) an aliquot (200 μl) of the E. coli suspension was removed and fixed in MeOH (1 ml, −20° C.). After centrifugation (2000 rpm, 4° C., 5 min) the cells were aspirated and re-suspend in NaCl (0.9% in H2O). The samples were then spotted onto slides and allowed to dry (42° C.). The slides were then washed 3×H2O and allowed to air dry (RT) before microscopy (see FIG. 20).

[6] = system: agrB mutant BK4043; assay: Intracellular ATP concentration, luciferase-based assay; conditions: agrB mutant with up-regulated DinQ peptide vs wild type AB1157
Protocol: Aliquots of cells were harvested before and 20 minutes after induction with IPTG to a final concentration of 1 mM and washed once in 50 mM Tris-Acetate pH 7.75. ATP was extracted from washed cells by 1% (TCA) trichloraceticacid in 50 mM Tris-Acetate pH 7.75 for 10 minutes. Tris-acetate buffer (1 ml) was added 1:10 to obtain optimal pH of 7.75 before mixing with rL/L reagent (ENLITEN ATP assay, Promega) at room temperature. The amount of ATP extracted (RLU value) was measured with 20/20 Luminometer (Turner Designs) and related to the OD600 for each sample.
The effect of DinQ peptide on the intracellular ATP concentration was measured using a quantitative luciferase-based assay (see materials and methods for details). […] Extracts from uninduced and SOS-induced agrB cells and wild-type cells, AB1157, were analysed 20 minutes after exposure by UV irradiation (sublethal doses).

| Substance | effect on membrane integrity / depolarization (DiBAC4(3) uptake) [1] | toxicity of the dinQ peptide upon UV induction [2] | other results |
| --- | --- | --- | --- |
| DinQ ORF2: amino acid sequence of the dinQ II polypeptide (ORF-II), 49 aa (MRRDRQWMSKRMHSHSIAWRKRVIDKAIIVLGALIALLELIRFLLQLLN; listed as Escherichia coli) | rapid and dramatic effects on the membrane integrity | – | – |
| MIDKAIIVLGAIVALLELIRFLLQLLN [L12I and I13V] | – | maintain the toxicity | – |
| MIDKAIIVLGALIALLELIRFLIQLLN (L23I variant of dinQ ORF V peptide) | – | maintain the toxicity | – |
| MIDKAIIVLGALIALLELIRFLLQLLN (listed as Escherichia coli) [ORF5, DinQ ORF-V peptide with N-terminal Met, form translated from GUG start codon, 27 aa] | rapid and dramatic effects on the membrane integrity | – | colony phenotype after induction [3]: appearance of small colony variants (SCV); toxic/growth inhibitory effect on IPTG plates ([4]; pET28b(+) constructs, IPTG induction, absence of UV): strong toxicity; effect on membrane integrity (ghost cells) by microscopy [5]: damages membrane integrity; effect on membrane integrity / depolarization (DiBAC4(3) uptake) ([1]; listed as DinQ ORF5): most pronounced; effect on intracellular ATP [6]: impairs the energy supply in the form of ATP |
| MIDKAIIVLKALIALLELIRFLLQLLN (G10K variant of dinQ ORF V peptide) | – | maintain the toxicity | – |
| MIDKAIVVLGALIALLELIRFLLQLLN (I7V variant of dinQ ORF V peptide) | – | maintain the toxicity | – |
| ORF3: amino acid sequence of the dinQ III polypeptide (ORF-III), 42 aa (MSKRMHSHSIAWRKRVIDKAIIVLGALIALLELIRFLLQLLN; listed as Escherichia coli) | rapid and dramatic effects on the membrane integrity | – | – |
| ORF4: amino acid sequence of the dinQ IV polypeptide (ORF-IV), 38 aa (MHSHSIAWRKRVIDKAIIVLGALIALLELIRFLLQLLN; listed as Escherichia coli) | rapid and dramatic effects on the membrane integrity | – | toxicity on titration with increasing concentrations of IPTG ([4]; very low doses of IPTG induction): highly toxic |
